Columns and labels:
Format in all cases: cell-based
[1] = target: T1, retinoid X receptor γ (Homo sapiens, UniProt P48443); assay: RXR activity test, DR1-tk-CAT reporter in HaCAT cells; settings: 1 μM, CAT ELISA, FIG. 2 (B)
T1 construct: expressed in transfected cells; host or cells: HaCAT
T1 sequence (P48443 1-463): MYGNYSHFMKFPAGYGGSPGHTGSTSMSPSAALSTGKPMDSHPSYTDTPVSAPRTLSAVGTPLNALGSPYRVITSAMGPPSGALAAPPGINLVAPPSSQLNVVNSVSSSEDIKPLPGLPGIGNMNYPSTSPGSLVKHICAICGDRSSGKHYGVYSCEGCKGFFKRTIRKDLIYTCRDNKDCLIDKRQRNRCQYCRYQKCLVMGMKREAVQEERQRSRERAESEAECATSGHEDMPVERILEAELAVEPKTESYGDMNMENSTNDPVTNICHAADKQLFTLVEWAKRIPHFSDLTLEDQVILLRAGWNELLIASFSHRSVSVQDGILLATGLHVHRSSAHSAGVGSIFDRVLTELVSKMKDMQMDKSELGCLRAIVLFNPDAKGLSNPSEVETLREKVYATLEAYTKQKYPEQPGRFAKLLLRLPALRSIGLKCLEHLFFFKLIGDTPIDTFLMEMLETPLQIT
Excerpt: (§1) To analyze the effects of retinol-(N-formyl-aspartam) on the activity of retinoic acid receptor, skin cancer (HaCAT) cell lines were utilized to measure the activity of retinoic acid receptor/retinoid X receptor.
(§2) Recombinant DNA, DR5-tk-CAT or DR1-tk-CAT consisting of DR1 or DR5, effectors of retinoic acid receptor/retinoid X receptor, thymine kinase promoter, and CAT(chloramphenicol acetyl transferase) were mixed with the plasmid DNA expressing retinoic acid receptor α, β, ? or retinoid X receptor α, β, ? to cotransfect skin cancer (HaCAT) cell line with lipofectamine (GibcoBRL). The cotransfected cell lines were cultured for 1 day on DMEM/10% FBS media, each retinol derivatives (1 μM) were added and cultured for one more day, 5% CO2, 37° C. The cells were washed with phosphate-buffered saline (PBS), and the proteins were isolated from each cells, and the activity of β-galactosidase and protein contents were measured to determine transfection efficacy, the transcription level of RAR or RXR receptor were measured with CAT ELISA (Roche Molecular Biochemical, Mannheim, Germany).

[2] = target: T2, retinoic acid receptor γ (Homo sapiens, UniProt P13631); assay: RAR activity test, DR5-tk-CAT reporter in HaCAT cells; settings: 1 μM, CAT ELISA, FIG. 2 (A)
T2 construct: expressed in transfected cells; b135 says HaCAT
T2 sequence (P13631 1-454): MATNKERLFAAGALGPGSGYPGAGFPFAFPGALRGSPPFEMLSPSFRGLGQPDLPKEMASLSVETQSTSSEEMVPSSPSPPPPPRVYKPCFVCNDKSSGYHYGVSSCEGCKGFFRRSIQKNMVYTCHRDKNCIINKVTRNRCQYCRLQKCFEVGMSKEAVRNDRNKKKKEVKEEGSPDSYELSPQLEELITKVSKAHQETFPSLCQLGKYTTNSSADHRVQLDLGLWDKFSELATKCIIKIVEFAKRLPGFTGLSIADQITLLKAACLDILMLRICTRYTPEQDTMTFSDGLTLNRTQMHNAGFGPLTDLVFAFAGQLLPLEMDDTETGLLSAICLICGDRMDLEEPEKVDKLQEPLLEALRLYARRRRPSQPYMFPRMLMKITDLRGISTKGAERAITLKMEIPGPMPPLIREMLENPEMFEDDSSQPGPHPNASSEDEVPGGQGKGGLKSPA
Excerpt: as §1, §2
(§3) To determine the effect of retinol-(N-formyl-aspartam) on retinoic acid receptors, each retinoic acid receptor (α, β, or ? ) expression vector and activity measuring DR5-tk-CAT plasmid were introduced with liposome. After treating cells with retinol-(N-formyl-aspartam), the cell extracts were isolated. The expression level of CAT were measured with CAT ELISA to determine the effect of retinol-(N-formyl-aspartam) on the activity of retinoic acid receptors.

[3] = target: T3, retinoic acid receptor β (Homo sapiens, UniProt P10826); assay: as above; settings: 1 μM, CAT ELISA, FIG. 2 (A)
T3 construct: expressed in transfected cells; b135 says HaCAT
T3 sequence (P10826 1-455): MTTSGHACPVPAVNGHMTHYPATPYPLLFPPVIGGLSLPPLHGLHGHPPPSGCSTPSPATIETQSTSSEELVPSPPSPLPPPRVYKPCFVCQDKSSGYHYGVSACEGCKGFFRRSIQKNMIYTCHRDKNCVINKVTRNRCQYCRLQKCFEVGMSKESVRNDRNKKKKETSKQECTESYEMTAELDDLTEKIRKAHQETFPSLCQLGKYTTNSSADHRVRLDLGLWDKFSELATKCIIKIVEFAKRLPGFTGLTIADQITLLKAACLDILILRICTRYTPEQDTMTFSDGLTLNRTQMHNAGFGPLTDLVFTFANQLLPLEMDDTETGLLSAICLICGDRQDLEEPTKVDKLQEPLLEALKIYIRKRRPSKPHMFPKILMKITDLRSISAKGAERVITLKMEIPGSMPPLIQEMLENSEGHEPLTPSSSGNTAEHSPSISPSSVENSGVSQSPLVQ
Excerpt: as §1, §2, §3

[4] = target: T4, retinoic acid receptor α (Homo sapiens, UniProt P10276); assay: as above; settings: 1 μM, CAT ELISA, FIG. 2 (A)
T4 construct: expressed in transfected cells; b135 says HaCAT
T4 sequence (P10276 1-462): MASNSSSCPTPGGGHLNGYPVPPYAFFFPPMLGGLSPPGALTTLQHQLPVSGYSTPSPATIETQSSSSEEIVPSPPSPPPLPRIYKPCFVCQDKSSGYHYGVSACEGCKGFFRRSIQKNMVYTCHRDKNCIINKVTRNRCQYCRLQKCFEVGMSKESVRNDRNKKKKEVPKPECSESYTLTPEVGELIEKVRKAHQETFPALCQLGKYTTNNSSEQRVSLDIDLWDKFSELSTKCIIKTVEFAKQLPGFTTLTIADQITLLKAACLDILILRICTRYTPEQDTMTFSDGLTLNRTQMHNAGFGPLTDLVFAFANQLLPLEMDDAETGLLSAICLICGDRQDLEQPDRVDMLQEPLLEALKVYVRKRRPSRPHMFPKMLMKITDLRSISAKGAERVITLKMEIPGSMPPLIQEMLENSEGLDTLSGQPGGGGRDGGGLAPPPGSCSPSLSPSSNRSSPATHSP
Excerpt: as §1, §2, §3

activation of retinoid X receptor γ [1]: no activation | activation of retinoic acid receptor γ [2]: weak activation | activation of retinoic acid receptor β [3]: weak activation | activation of retinoic acid receptor α [4]: high activation
Structure (SMILES): COC(=O)C(Cc1ccccc1)NC(=O)[C@H](CC(=O)OC/C=C(C)/C=C/C=C(C)/C=C/C1=C(C)CCCC1(C)C)NC=O (stereo partly drawn) [retinol-(N-formyl-aspartam), (2E,4E,6E,8E)-3,7-dimethyl-9-(2,6,6-trimethyl-1-cyclohexenyl)-2,4,6,8-nonatetraenyl(3S)-4-[(1-benzyl-2-methoxy-2-oxoethyl)amino]-3-formylamino-4-oxobutanoate]

From patent publication US7030265B2, “Retinol derivatives, the method of preparations and the uses thereof” (Chebigen, Inc., priority 2001, dated 2006)
